Read-outs that look alike come from different tables or passages of the source.
Experiments:
[1] = system: Sphaerotheca fuliginea; assay: Example D: in vivo test on Sphaerotheca fuliginea (powdery mildew on cucumber); conditions: Podosphaera fuliginea, 288 h, cucumber plants sprayed 24 hours before inoculation, scored after 12 days, read-out: % Wirkungsgrad
Description: In Vivo Test on Sphaerotheca Fuliginea (Powdery Mildew on Cucumber) An aqueous suspension of the active substance was prepared by homogenization of a mixture of acetone/Tween/dimethyl sulphoxide and subsequent dilution with water to the desired concentration. Cucumber plants (variety: Vert petit de Paris) are sown in cultivation dishes on a peat-pozzolanic earth substrate (50/50) at 20/23° C. and at the cotyledon stage Z10 sprayed with the aqueous suspension described above. As a control, plants are sprayed with an aqueous solution with no active substance. After 24 hours the plants are inoculated by spraying with an aqueous suspension of Sphaerotheca fuliginea spores (100,000 spores per ml). The spores are derived from a contaminated plant. The inoculated cucumber plants are incubated at ca. 20/25° C. at a relative atmospheric humidity of 60/70%. After 12 days they are scored in comparison with the control plants.

[2] = system: Mycosphaerella graminicola; assay: Example G: in vivo test on Mycosphaerella graminicola (wheat leaf blotch disease); conditions: Zymoseptoria tritici, wheat plants sprayed 24 hours before inoculation, scored after 21 to 28 days, read-out: % Wirkungsgrad
Description: In Vivo Test on Mycosphaerella Graminicola (Wheat Leaf Blotch Disease) An aqueous suspension of the active substance was prepared by homogenization of a mixture of acetone/Tween/dimethyl sulphoxide and subsequent dilution with water to the desired concentration. Wheat plants (variety: Scipion) are sown in cultivation dishes on a peat-pozzolanic earth substrate (50/50) at 12° C. and sprayed at the first-leaf stage (10 cm size) with the aqueous suspension described above. As a control, plants are sprayed with an aqueous solution with no active substance. After 24 hours the plants are inoculated by spraying with an aqueous suspension of Mycosphaerella graminicola spores (500,000 spores per ml). The spores are derived from a 7 day-old culture. […] After 21 to 28 days they are scored in comparison with the control plants.

[3] = system: Peronospora parasitica; assay: Example A: in vivo test on Peronospora parasitica (downy mildew on white cabbage); conditions: Hyaloperonospora parasitica, 120 h, cabbage plants sprayed 24 hours before inoculation, scored after 5 days, read-out: % Wirkungsgrad
Description: In Vivo Test on Peronospora Parasitica (Downy Mildew on White Cabbage) An aqueous suspension of the active substance was prepared by homogenization of a mixture of acetone/Tween (dispersant)/dimethyl sulphoxide (DMSO) and subsequent dilution with water to the desired concentration. Cabbage plants (variety: Eminence) are sown in cultivation dishes on a peat-pozzolanic earth substrate (50/50) at 18-20° C. and sprayed at the cotyledon stage with the aqueous suspension described above. As a control, plants are sprayed with an aqueous solution with no active substance. After 24 hours, the plants are inoculated by spraying with an aqueous suspension of Peronospora parasitica spores (50,000 spores per ml). The spores are derived from infected plants. The inoculated cabbage plants are incubated for 5 days at ca. 20° C. in a moist atmosphere. After 5 days, they are scored in comparison with the control plants.

[4] = physchem
[5] = system: Alternaria solani; assay: Example M: in vivo test on Alternaria solani (leaf blotch disease/tomato/protective); conditions: 168 h, tomato, protective, 500 ppm active substance, assessed 7 days after inoculation, read-out: % Wirkungsgrad (activity level)
Method in brief: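 Protective test: young tomato plants sprayed with active substance (in DMF with alkylaryl polyglycol ether emulsifier, diluted in water) at the stated dosage, then inoculated with Alternaria solani. Disease assessed 7 days after inoculation.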

[6] = system: Sphaerotheca fuliginea; assay: Example L: in vivo test on Sphaerotheca fuliginea (powdery mildew on cucumber/protective); conditions: Podosphaera fuliginea, 168 h, cucumber, protective, assessment 7 days after inoculation, read-out: % Wirkungsgrad
Method in brief: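 Young cucumber plants sprayed at stated dosage with compound in DMF/alkylaryl polyglycol ether emulsifier diluted in water; inoculated with S. fuliginea spores one day later. Kept in greenhouse at 70% relative humidity, 23° C; protective activity assessed 7 days after inoculation.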

[7] = system: Fusarium proliferatum; assay: Example I: production of fumonisin FB1 by Fusarium proliferatum (microtitre plates); type: cell-based; conditions: 120 h
[8] = system: Fusarium graminearum; assay: microbe, parasite or virus in culture; type: cell-based
[9] = system: Fusarium graminearum; assay: whole plant or invertebrate; type: in vivo; conditions: in Hordeum vulgare, 120 h, read-out: % Wirkungsgrad (activity level)
[10] = system: Venturia inaequalis; assay: Example O: in vivo test on Venturia inaequalis (apple scab/protective); conditions: 240 h, protective, assessment 10 days after inoculation, read-out: % Wirkungsgrad
Method in brief: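 Protective test: active substance mixed with solvent and alkylaryl polyglycol ether emulsifier, diluted with water, and sprayed on young plants at the stated dosage before Venturia inaequalis inoculation. Scab assessed 10 days after inoculation.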

[11] = system: Septoria tritici; assay: Example R: in vivo test on Septoria tritici (leaf blotch in wheat/protective); conditions: Zymoseptoria tritici, 504 h, wheat, protective, 1000 ppm active substance, assessed 21 days after inoculation, read-out: % Wirkungsgrad (activity level)
Description: Solvent: 49 parts by weight N,N-dimethylacetamide Emulsifier: 1 part by weight alkylaryl polyglycol ethers For the preparation of a suitable active substance preparation, 1 part by weight of active substance is mixed with the stated quantities of solvent and emulsifier and the concentrate is diluted to the desired concentration with water. For the testing for protective activity, young plants are sprayed with the active substance preparation at the stated application dosage. After drying of the spray coating, the plants are sprayed with a spore suspension of Septoria tritici. […] 21 days after the inoculation, the assessment takes place.

[12] = system: Botrytis cinerea; assay: Example P: in vivo test on Botrytis cinerea (gray mould on bean/protective); conditions: 48 h, bean, protective, 250 ppm active substance, assessed 2 days after inoculation, read-out: % Wirkungsgrad (activity level)
Method in brief: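 Protective test: young bean plants sprayed with the active substance preparation (emulsifier-based concentrate diluted in water) at the stated dosage. Once dry, each leaf received 2 agar pieces bearing Botrytis cinerea. Infection blotch size assessed 2 days after inoculation.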

[13] = system: Fusarium nivale (var. majus); assay: whole plant or invertebrate; type: in vivo; conditions: Microdochium nivale, in Triticum aestivum, 120 h, read-out: % Wirkungsgrad (activity level)
[14] = system: Plasmopara viticola; assay: Example N: in vivo test on Plasmopara viticola (downy mildew, vine/protective); conditions: 144 h, vine, protective, assessment 6 days after inoculation, read-out: % Wirkungsgrad
Description: Emulsifier: 1 part by weight alkylaryl polyglycol ethers For the preparation of a suitable active substance preparation, 1 part by weight of active substance is mixed with the stated quantities of solvent and emulsifier and the concentrate is diluted to the desired concentration with water. For the testing for protective activity, young plants are sprayed with the active substance preparation at the stated application dosage. […] The plants are then moistened and placed in an incubation cabin for 1 day. 6 days after the inoculation, the assessment takes place.

[15] = LogPA (logP of the stated pure compound or, in a mixture, of the main isomer, 1-substituted 3-aryl-1H-pyrazole)
[16] = Fusarium proliferatum growth, OD 620, 5 days, read-out: % Inhibition des Pilzwachstums bei 50 μM
[17] = Fusarium proliferatum, 5 days at 20° C., HPLC-MS/MS, read-out: % Inhibition der FB1 produktion bei 50 μM
[18] = 72 h, read-out: % Inhibition des Pilzwachstums bei 50 μM
[19] = 168 h, read-out: % Inhibition der DON/AcDON produktion bei 50 μM

| SMILES | pest or weed control at 500 ppm [1] | pest or weed control at 500 ppm [2] | chromatographic logP [4, 15] | pest or weed control at 500 ppm [5] | pest or weed control at 500 ppm [6] | pest or weed control at 100 ppm [10] | pest or weed control at 250 ppm [12] | chromatographic logP ([4]; LogPA) | other results |
| --- | --- | --- | --- | --- | --- | --- | --- | --- | --- |
| CC(C)(C)Cn1ncc(-c2ccncc2)c1-c1c(F)cccc1F [Compound 6] | 95% | 85% | 1.79 |  |  |  |  |  | pest or weed control at 500 ppm [3]: 70% |
| Fc1cccc(F)c1-c1nn(CC(F)(F)F)cc1-c1ccncc1 [Compound 12] | 95% | 77% | 1.39 |  |  |  |  |  |  |
| Fc1cccc(F)c1-c1c(-c2ccncc2)cnn1C1CCC1 [Compound 15] | 87% | 97% | 1.49 | 95% | 95% |  |  |  | pest or weed control at 500 ppm [3]: 75% |
| Fc1cccc(F)c1-c1nn(C2CCCC2)cc1-c1ccncc1 [Compound 16] |  | 97% | 1.79 |  |  |  |  |  |  |
| Fc1cccc(F)c1-c1nn(CC2CCCO2)cc1-c1ccncc1 (stereo not shown) [Compound 26] | 80% | 88% | 1.16 |  |  |  |  |  |  |
| Fc1cccc(F)c1-c1c(-c2ccncc2)cnn1CC1CCCO1 (stereo not shown) [Compound 27] | 73% | 97% | 1.21 |  |  |  |  |  |  |
| C#CCn1ccc2c(-c3cn(C(C)C)nc3-c3ccc(F)cc3)ccnc21 [Compound 47] |  | 77% | 3.63 |  |  |  |  |  | inhibition at 50 µM [7, 16]: 0%; inhibition at 50 µM [7, 17]: 98% |
| CNC(=O)c1cc(-c2cn(C(C)C)nc2-c2ccc(F)cc2)ccn1 [Compound 53] | 98% | 91% | 2.74 |  |  |  |  |  | inhibition at 50 µM [7, 16]: 0%; inhibition at 50 µM [7, 17]: 96% |
| CC(C)n1ncc(-c2ccnc(NC(=O)C(C)(C)C)c2)c1-c1ccc(F)cc1 [Compound 72] |  | 83% | 2.99 | 95% |  |  |  |  |  |
| CC(=O)n1ccc2c(-c3cn(C4CCCCO4)nc3-c3ccc(F)cc3)ccnc21 (stereo not shown) [Compound 81] | 77% | 97% | 3.85 | 95% |  |  |  |  | pest or weed control at 500 ppm [3]: 89% |
| CCOC(=O)CCn1cc(-c2ccncc2)c(-c2ccc(F)cc2)n1 [Compound 132] | 82% | 86% | 1.29 |  |  |  |  |  |  |
| CCC(C)n1cc(-c2ccnc(NC(=O)C(C)C)c2)c(-c2ccc(F)cc2)n1 (stereo not shown) [Compound 157] |  |  | 2.82 | 94% | 100% | 94% | 78% |  | inhibition at 50 µM [8, 18]: 100%; inhibition at 50 µM [8, 19]: 100%; pest or weed control at 1000 ppm [9]: 100%; pest or weed control at 1000 ppm [11]: 100%; pest or weed control at 1000 ppm [13]: 88% |
| CCC(C)n1cc(-c2ccnc(NC(=O)CC3CC3)c2)c(-c2ccc(F)cc2)n1 (stereo not shown) [Compound 159] |  |  | 3 | 94% | 97% | 97% | 98% |  | inhibition at 50 µM [8, 18]: 102%; inhibition at 50 µM [8, 19]: 99%; pest or weed control at 1000 ppm [9]: 100%; pest or weed control at 1000 ppm [11]: 100%; pest or weed control at 1000 ppm [13]: 75% |
| CCC(=O)Nc1cc(-c2cn(CCCl)nc2-c2ccc(F)cc2)ccn1 [Compound 219] |  |  |  |  | 100% | 96% | 100% | 2.01 | inhibition at 50 µM [8, 18]: 97%; inhibition at 50 µM [8, 19]: 100%; inhibition at 50 µM [7, 16]: 97%; inhibition at 50 µM [7, 17]: 100%; pest or weed control at 100 ppm [14]: 95% |
| O=C(Nc1cc(-c2cn(CC3CC3)nc2-c2ccc(F)cc2)ccn1)C1CC1 [Compound 224] |  |  |  | 70% | 99% | 71% | 99% | 2.29 | inhibition at 50 µM [8, 18]: 100%; inhibition at 50 µM [8, 19]: 92%; pest or weed control at 1000 ppm [9]: 100%; pest or weed control at 1000 ppm [11]: 100%; inhibition at 50 µM [7, 16]: 99%; inhibition at 50 µM [7, 17]: 100%; pest or weed control at 1000 ppm [13]: 100% |
| CC(C)CC(=O)Nc1cc(-c2cn(CC(F)F)nc2-c2ccc(F)cc2)ccn1 [Compound 238] |  |  |  | 94% | 100% | 98% | 93% | 2.63 | pest or weed control at 1000 ppm [9]: 92%; pest or weed control at 100 ppm [14]: 88%; pest or weed control at 1000 ppm [13]: 75% |
| O=C(Nc1cc(-c2cn(CC(F)F)nc2-c2ccc(F)cc2)ccn1)C1CCC1 [Compound 240] |  |  |  | 88% | 96% | 96% | 99% | 2.42 | pest or weed control at 1000 ppm [11]: 75%; pest or weed control at 100 ppm [14]: 90%; pest or weed control at 1000 ppm [13]: 75% |
| O=C(CC1CC1)Nc1cc(-c2cn(CC3CC3(Cl)Cl)nc2-c2ccc(F)cc2)ccn1 (stereo not shown) [Compound 251] |  |  |  | 94% | 96% | 84% | 95% | 3.3 | pest or weed control at 1000 ppm [9]: 83% |
| O=C(Nc1cc(-c2cn(CC3CC3(Cl)Cl)nc2-c2ccc(F)cc2)ccn1)C1CC1 (stereo not shown) [Compound 260] |  |  |  | 90% | 95% | 94% | 100% | 2.67 | inhibition at 50 µM [8, 18]: 5%; inhibition at 50 µM [8, 19]: 99%; pest or weed control at 100 ppm [14]: 70% |

Reference: patent US20110183978A1, “Phenylpyri(mi)dinylazoles” (Bayer CropScience AG, priority 2009, published 2011)
